From ChEMBL document CHEMBL3085630, “Thienopyrimidine bisphosphonate (ThPBP) inhibitors of the human farnesyl pyrophosphate synthase: optimization and characterization of the mode of inhibition” (J Med Chem, 2013)
The source made the active and inactive calls. The rule behind the calls is not given here.

What was measured:
[1] = molecular target: T1, Farnesyl pyrophosphate synthase (Homo sapiens, UniProt P14324); test: Inhibition of human recombinant FPPS using GPP/[3H]IPP as substrate incubated for 10 mins prior to substrate addition by scintillation counting analysis
T1 sequence (P14324 whole entry): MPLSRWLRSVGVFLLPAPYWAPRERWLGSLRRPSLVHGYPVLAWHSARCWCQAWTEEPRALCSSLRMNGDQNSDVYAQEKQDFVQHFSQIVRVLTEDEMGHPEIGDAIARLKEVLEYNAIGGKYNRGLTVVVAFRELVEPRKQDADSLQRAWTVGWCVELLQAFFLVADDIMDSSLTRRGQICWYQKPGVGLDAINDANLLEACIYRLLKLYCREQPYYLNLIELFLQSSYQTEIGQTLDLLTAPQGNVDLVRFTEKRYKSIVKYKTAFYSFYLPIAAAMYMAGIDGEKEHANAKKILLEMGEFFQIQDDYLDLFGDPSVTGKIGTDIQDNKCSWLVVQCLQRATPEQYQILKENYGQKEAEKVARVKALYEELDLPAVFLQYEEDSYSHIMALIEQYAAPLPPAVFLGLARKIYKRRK

Hydroxyapatite = test: Binding affinity to bone mineral hydroxyapatite at 50 uM after 5 mins by NMR-spectroscopic analysis
[2] = molecular target: T2, Farnesyl pyrophosphate synthase (Homo sapiens) (UniProt P14324); test: Inhibition of human recombinant FPPS using GPP/[3H]IPP as substrate at 100 nM incubated for 10 mins prior to substrate addition measured after 8 mins by scintillation counting analysis
T2 sequence (whole entry): T1 sequence (P14324 whole entry)

[3] = molecular target: T1, Farnesyl pyrophosphate synthase; test: Inhibition of human recombinant FPPS using GPP/[3H]IPP as substrate incubated for 10 mins prior to substrate addition measured after 8 mins by scintillation counting analysis

SMILES | Activity (Hydroxyapatite) | inhibition [2] [%] | also measured
COc1ccc(-c2cc3c(NC(P(=O)(O)O)P(=O)(O)O)ncnc3s2)cc1 |  |  | IC50 [1]: 0.44 µM
O=P(O)(O)C(Nc1ncnc2sc(-c3ccc(OC4CC4)cc3)cc12)P(=O)(O)O | Active |  | 
Cc1noc(C)c1-c1cc2c(NC(P(=O)(O)O)P(=O)(O)O)ncnc2s1 |  | < 20 | 
CC(C)Oc1ccc(-c2cc3c(NC(P(=O)(O)O)P(=O)(O)O)ncnc3s2)cc1 |  |  | IC50 [3]: 0.2 µM
O=P(O)(O)C(Nc1ncnc2sc(-c3ccc4[nH]ncc4c3)cc12)P(=O)(O)O |  | < 20 | 
O=P(O)(O)C(Nc1ncnc2sc(-c3ccc(C4CC4)cc3)cc12)P(=O)(O)O | Active |  | IC50 [1]: 0.115 µM; IC50 [3]: 0.039 µM
O=P(O)(O)C(Nc1ncnc2sc(-c3cccc4[nH]ncc34)cc12)P(=O)(O)O |  | < 20 | 
O=P(O)(O)C(Nc1ncnc2sc(-c3ccc(C4CC4(F)F)cc3)cc12)P(=O)(O)O (centres undefined) |  |  | IC50 [1]: 0.14 µM
O=P(O)(O)C(O)(Cc1cccnc1)P(=O)(O)O | Active |  | 

Second part, led by results:

Activity (Hydroxyapatite) | inhibition [2] [%] | SMILES | also measured
 | 30 | O=P(O)(O)C(Nc1ncnc2sc(-c3cccc(C(F)(F)F)c3)cc12)P(=O)(O)O | 
Active | 73 | O=P(O)(O)C(Nc1ncnc2sc(-c3ccc(C(F)(F)F)cc3)cc12)P(=O)(O)O | 
